Laboratory results reported in patent publication US20230233569A1 (Revolution Medicines, Inc., priority 2020, published 2023).
pEC50, pIC50: −log10 of the molar value. “And” between values parts separate entries of the source, which are not always exact repeats. Equal entries are not always repeated. Where two headings read alike, the source gives them in different places.

Assays:
[1] = test system: Capan-1 (K-Ras G12V); test: CellTiter-Glo cell viability assay, 5-day treatment; assay type: cell-based; details: Homo sapiens, CAPAN-1, 120 h, 5-day treatment; read-out: Capan-1 Cell Viability assay data (K-Ras G12V, IC50)
Method in brief: (§1)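 Viability is read as luminescence on day 5 after direct compound addition to plated cells, following about 30 minutes' room-temperature equilibration. Each signal is scaled to mean DMSO as 100%.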

[2] = test system: NCI-H358 (K-Ras G12C); test: as above; assay type: cell-based; details: Homo sapiens
Method in brief: as §1

[3] = biological target: KRAS G12C (Homo sapiens, UniProt P01116+P62937, G12C); test: Disruption of BRAF RBD interaction with Ras (FRET / MOA assay, with Cyclophilin A); assay type: biochemical
Chain of KRAS G12C (P01116 1-169 isoform P01116-2 G12C): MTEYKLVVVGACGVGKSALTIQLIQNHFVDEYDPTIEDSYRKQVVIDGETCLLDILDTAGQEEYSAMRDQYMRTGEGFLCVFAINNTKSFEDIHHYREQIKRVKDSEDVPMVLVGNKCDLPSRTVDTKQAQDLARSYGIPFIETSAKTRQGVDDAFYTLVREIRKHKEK
Chain of KRAS G12C (P62937 whole entry): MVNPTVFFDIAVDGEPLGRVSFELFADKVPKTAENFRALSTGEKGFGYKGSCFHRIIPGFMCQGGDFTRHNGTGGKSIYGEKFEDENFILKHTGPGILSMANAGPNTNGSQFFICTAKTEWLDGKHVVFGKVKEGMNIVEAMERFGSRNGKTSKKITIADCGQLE
Method in brief: (§2)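 IC50 values reflect loss of K-Ras binding to BRAF RBD, read as a lowered TR-FRET ratio compared with DMSO, driven by compound-mediated K-Ras:Cyclophilin A complex formation. Compound top dose 30 μM final, 3-fold steps, 3 h incubation at 25 °C before a 1.5 h antibody step.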

[4] = biological target: KRAS G12D (Homo sapiens, UniProt P01116+P62937, G12D); test: as above; assay type: biochemical
Chain of KRAS G12D (P01116 1-169 isoform P01116-2 G12D limits assumed): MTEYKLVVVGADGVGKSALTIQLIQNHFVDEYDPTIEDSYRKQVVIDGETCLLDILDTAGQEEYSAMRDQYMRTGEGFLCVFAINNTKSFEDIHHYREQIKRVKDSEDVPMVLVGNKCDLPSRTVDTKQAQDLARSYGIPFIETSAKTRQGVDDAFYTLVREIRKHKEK
Chain of KRAS G12D (P62937 whole entry): as the sequence (P62937 whole entry) above
Method in brief: as §2

[5] = biological target: KRAS G12S (Homo sapiens, UniProt P01116+P62937, G12S); test: as above; assay type: biochemical; details: read-out: KRAS G12S FRET data, IC50
Chain of KRAS G12S (P01116 1-169 isoform P01116-2 G12S limits assumed): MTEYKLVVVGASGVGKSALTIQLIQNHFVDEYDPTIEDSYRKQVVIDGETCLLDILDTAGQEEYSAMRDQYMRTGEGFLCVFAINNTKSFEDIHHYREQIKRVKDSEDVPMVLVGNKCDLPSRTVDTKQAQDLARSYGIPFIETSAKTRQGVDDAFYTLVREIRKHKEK
Chain of KRAS G12S (P62937 whole entry): as the sequence (P62937 whole entry) above
Method in brief: as §2

[6] = biological target: KRAS G12V (Homo sapiens, UniProt P01116+P62937, G12V); test: as above; assay type: biochemical
Chain of KRAS G12V (P01116 1-169 isoform P01116-2 G12V limits assumed): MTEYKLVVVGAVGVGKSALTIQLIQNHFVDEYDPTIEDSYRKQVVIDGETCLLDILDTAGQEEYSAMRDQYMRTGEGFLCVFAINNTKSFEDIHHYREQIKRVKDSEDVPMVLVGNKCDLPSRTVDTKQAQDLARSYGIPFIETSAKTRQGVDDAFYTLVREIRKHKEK
Chain of KRAS G12V (P62937 whole entry): as the sequence (P62937 whole entry) above
Method in brief: as §2

[7] = biological target: KRAS G13C (Homo sapiens, UniProt P01116+P62937, G13C); test: as above; assay type: biochemical
Chain of KRAS G13C (P01116 1-169 isoform P01116-2 G13C): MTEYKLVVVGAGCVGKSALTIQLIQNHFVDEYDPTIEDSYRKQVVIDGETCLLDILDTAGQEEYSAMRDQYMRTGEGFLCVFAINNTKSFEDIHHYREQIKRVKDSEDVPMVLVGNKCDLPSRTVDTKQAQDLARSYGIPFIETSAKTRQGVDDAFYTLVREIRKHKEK
Chain of KRAS G13C (P62937 whole entry): as the sequence (P62937 whole entry) above
Method in brief: as §2

[8] = biological target: KRAS G13D (Homo sapiens, UniProt P01116+P62937, G13D); test: as above; assay type: biochemical
Chain of KRAS G13D (P01116 1-169 isoform P01116-2 G13D limits assumed): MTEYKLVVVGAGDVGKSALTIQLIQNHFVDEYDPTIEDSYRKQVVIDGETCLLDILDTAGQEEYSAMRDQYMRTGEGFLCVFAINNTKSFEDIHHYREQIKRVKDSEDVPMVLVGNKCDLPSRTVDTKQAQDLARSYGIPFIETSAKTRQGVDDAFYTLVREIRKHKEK
Chain of KRAS G13D (P62937 whole entry): as the sequence (P62937 whole entry) above
Method in brief: as §2

[9] = biological target: KRAS WT (Homo sapiens, UniProt P01116+P62937); test: as above; assay type: biochemical; details: KRAS WT; read-out: KRAS WT FRET data IC50
Chain of KRAS WT (P01116 1-169 isoform P01116-2 limits assumed): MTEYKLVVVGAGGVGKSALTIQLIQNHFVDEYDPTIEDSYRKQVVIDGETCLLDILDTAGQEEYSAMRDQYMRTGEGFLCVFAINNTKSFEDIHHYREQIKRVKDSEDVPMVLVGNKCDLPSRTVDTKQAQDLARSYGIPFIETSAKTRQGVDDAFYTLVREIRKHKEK
Chain of KRAS WT (P62937 whole entry): as the sequence (P62937 whole entry) above
Method in brief: as §2

[10] = biological target: NRAS G12C (Homo sapiens, UniProt P01111+P62937, G12C); test: as above; assay type: biochemical; details: NRAS G12C; read-out: NRAS G12C FRET data IC50
Chain of NRAS G12C (P01111 whole entry G12C): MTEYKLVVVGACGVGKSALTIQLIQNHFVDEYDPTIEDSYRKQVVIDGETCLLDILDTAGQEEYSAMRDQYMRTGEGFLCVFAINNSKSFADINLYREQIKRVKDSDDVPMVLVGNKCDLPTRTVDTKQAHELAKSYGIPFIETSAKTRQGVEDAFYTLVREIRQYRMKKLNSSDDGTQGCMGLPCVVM
Chain of NRAS G12C (P62937 whole entry): as the sequence (P62937 whole entry) above

[11] = biological target: NRAS WT (Homo sapiens, UniProt P01111+P62937); test: as above; assay type: biochemical; details: NRAS WT; read-out: NRAS WT FRET data IC50
Chain of NRAS WT (P01111 whole entry): as the sequence (P01111 whole entry G12C) above, with C12G counted along it
Chain of NRAS WT (P62937 whole entry): as the sequence (P62937 whole entry) above
Method in brief: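 TR-FRET in 25 mM HEPES pH 7.3, 100 mM NaCl, 5 mM MgCl2, 0.1% BSA: 25 μM Cyclophilin A, 12.5 nM His6-Ras-GMPPNP, 50 nM GST-BRAF RBD with compound (10-point 3-fold series from 30 μM), 3 h at 25° C. Anti-His Eu/anti-GST APC added, 1.5 h more; IC50 from decreased FRET ratio versus DMSO.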

[12] = test system: AsPC-1 (K-Ras G12D); test: Potency assay: pERK, other cell line; assay type: cell-based; details: Homo sapiens, ASPC1
[13] = test system: Capan-1 (K-Ras G12V); test: Potency assay: pERK, other cell line; assay type: cell-based; details: Homo sapiens
[14] = read-out: KRAS G12D FRET data, IC50
[15] = KRAS G12V, read-out: KRAS G12V FRET data IC50
[16] = NCI-H358, H358, K-Ras G12C, read-out: Additional H358 Cell Viability assay data (K-Ras G12C, IC50)
[17] = KRAS G12C, read-out: KRAS G12C FRET data IC50
[18] = KRAS G13C, read-out: KRAS G13C FRET data IC50
[19] = KRAS G13D, read-out: KRAS G13D FRET data IC50

| pIC50 [4, 14] | pIC50 [5] | pIC50 [6, 15] | pIC50 [9] | pIC50 [10] | pIC50 [2, 16] | pIC50 [3, 17] | pIC50 [7, 18] | pIC50 [8, 19] | Structure (SMILES) | further results |
| --- | --- | --- | --- | --- | --- | --- | --- | --- | --- | --- |
| 6.00 to 7.00 and < 5.00 | 5.00 to 6.00 and 7.00 to 8.00 | 5.00 to 6.00 and 7.00 to 8.00 | 5.00 to 6.00 and 7.00 to 8.00 | 5.00 to 6.00 and 7.00 to 8.00 |  |  |  |  | CCn1c(-c2cccnc2[C@H](C)OC)c2c3cc(ccc31)-c1cc(O)cc(c1)C[C@H](NC(=O)[C@H](C(C)C)N(C)C(=O)[C@H]1CCN(C(=O)OC)C1)C(=O)N1CCC[C@H](N1)C(=O)OCC(C)(C)C2 (atropisomer, axis not shown) [Example A3] | pIC50 [1]: 7.00 to 8.00; pIC50 ([2]; NCI-H358, 120 h, 5-day treatment, read-out: H358 Cell Viability IC50): 7.24; pIC50 ([3]; read-out: FRET G12C IC50): 7.54; pIC50 ([3]; read-out: KRAS G12C FRET data, IC50): 5.00 to 6.00 and 7.00 to 8.00; pIC50 ([4]; read-out: FRET G12D IC50): 6.26; pIC50 ([6]; read-out: FRET G12V IC50): 7.37; pIC50 ([7]; read-out: FRET G13C IC50): 7.00; pIC50 ([7]; read-out: KRAS G13C FRET data, IC50): 5.00 to 6.00 and 7.00 to 8.00; pIC50 ([8]; read-out: FRET G13D IC50): 6.80; pIC50 [11]: 7.00 to 8.00; pEC50 [12]: 6.84; pEC50 [13]: 8.10 |
| < 5.00 | 5.00 to 6.00 | 5.00 to 6.00 | 5.00 to 6.00 | 6.00 to 7.00 | 6.00 to 7.00 | 6.00 to 7.00 | 6.00 to 7.00 | 5.00 to 6.00 | C=CC(=O)N1CC[C@]2(C1)OCN(C(=O)N(C)[C@H](C(=O)N[C@H]1Cc3cccc(n3)-c3ccc4c(c3)c(c(-c3cccnc3[C@H](C)OC)n4CC)CC(C)(C)COC(=O)[C@@H]3CCCN(N3)C1=O)C(C)C)C2=O (atropisomer, axis not shown) [Example A652] |  |
| 5.00 to 6.00 | 5.00 to 6.00 | 5.00 to 6.00 | 6.00 to 7.00 | 7.00 to 8.00 | > 8.00 | 7.00 to 8.00 | 7.00 to 8.00 | 5.00 to 6.00 | C=CC(=O)N1CCO[C@H]2CN(C(=O)N(C)[C@H](C(=O)N[C@H]3Cc4cccc(c4)-c4ccc5c(c4)c(c(-c4cccnc4[C@H](C)OC)n5CC)CC(C)(C)COC(=O)C4CCCN(N4)C3=O)C(C)C)C[C@H]21 (some centres unmarked) [Example A610] |  |
| 5.00 to 6.00 | 6.00 to 7.00 | 6.00 to 7.00 | 6.00 to 7.00 | 6.00 to 7.00 | 7.00 to 8.00 | 6.00 to 7.00 | 6.00 to 7.00 | 5.00 to 6.00 | C=CC(=O)N1CC[C@@H](N(C)C(=O)N(C)[C@H](C(=O)N[C@H]2Cc3nc(cs3)-c3ccc4c(c3)c(c(-c3cccnc3[C@H](C)OC)n4CC(F)(F)F)CC(C)(C)COC(=O)[C@@H]3CCCN(N3)C2=O)C(C)C)C1 (atropisomer, axis not shown) [Example A728] |  |
